In patent publication US20260315475A1 (priority 2023, published 2026):
Read-outs that look alike come from different tables or passages of the source.

Tests used:
[1] = Safety and tolerability in the Phase I hepatic impairment study; type: in vivo, human
Source text: The secondary objectives were: to evaluate the safety and tolerability of a single oral dose of belumosudil in participants with mild, moderate, or severe hepatic impairment, and in healthy participants with normal hepatic function; to assess the PK of the belumosudil metabolites following a single oral dose of belumosudil in participants with mild, moderate, or severe hepatic impairment compared to healthy participants with normal hepatic function. […]
The secondary/safety endpoints were: incidence and severity of adverse events (AEs), clinical laboratory parameters (hematology, clinical chemistry, coagulation, and urinalysis), 12-lead electrocardiogram (ECG) parameters, vital signs parameters, and physical examinations.
Treatment-emergent AEs (TEAEs) were summarized by severity and relationship to the investigational medicinal product (IMP). The frequency of TEAEs was summarized by Medical Dictionary for Regulatory Activities system organ class and preferred term, and hepatic function. Summary and frequency TEAE tables were presented for all causalities and for those considered related to the IMP.
Serum biochemistry, hematology, and coagulation data were summarized by hepatic function. In addition, all serum biochemistry, hematology, and urinalysis data outside the clinical reference ranges were listed by parameter and treatment. Vital signs and ECG data were summarized by hepatic function, together with changes from baseline.

ROCK2 = settings: cited from earlier work
ROCK1 = settings: cited from earlier work
pro-fibrotic signaling = settings: in vitro; cited from earlier work
[2] = in vivo; cited from earlier work
[3] = cited from earlier work
[4] = pregnant rats, cited from earlier work
[5] = 275 mg/kg/day oral, cited from earlier work
[6] = cited from earlier work; remark: listed apart in the source
[7] = age 18 to 77 years, weight 38.6 to 143 kg, mild to moderate renal impairment; cited from earlier work
CYP2D6 [8] = settings: role: substrate; in vitro; cited from earlier work
CYP1A2 = settings: role: inhibitor; in vitro; cited from earlier work
CYP2C19 = settings: role: inhibitor; in vitro; cited from earlier work
CYP2D6 [9] = settings: role: inhibitor; in vitro; cited from earlier work
rat bone marrow = settings: in vivo; cited from earlier work
[10] = moderate hepatic impairment group
[11] = healthy subjects, coadministered omeprazole
[12] = healthy subjects, coadministered rabeprazole
[13] = healthy subjects, coadministered rifampin

CC(C)NC(=O)COc1cccc(-c2nc(Nc3ccc4[nH]ncc4c3)c3ccccc3n2)c1 [belumosudil, 2-{3-[4-(1H-indazol-5-ylamino)-2-quinazolinyl]phenoxy}-N-(propan-2-yl) acetamide]
12-lead ECG parameters ([1]; individual participants): no clinically significant changes
vital signs parameters ([1]; individual participants): no clinically significant changes
number of SAEs [1, 10]: 1
number of TEAEs [1, 10]: 2 TEAEs
participants reporting TEAEs ([1]; moderate hepatic impairment group, 1 participant): 12.5%
AEs related to study drug ([1]; single oral 200 mg): no reports of AEs related to study drug
deaths ([1]; single oral 200 mg): no reports of deaths
discontinuation due to an AE ([1]; single oral 200 mg): no participants discontinued due to an AE
clinical chemistry, hematology, coagulation, or urinalysis ([1]; throughout the study): no clinically significant changes
physical examinations ([1]; throughout the study): no clinically significant findings
aberrant pro-fibrotic signaling (pro-fibrotic signaling): inhibits aberrant pro-fibrotic signaling
activity in animal models of chronic GVHD [2]: demonstrates activity
effect of proton pump inhibitors on belumosudil exposure ([3]; coadministered proton pump inhibitors): decreases belumosudil exposure
effect of strong CYP3A inducers on belumosudil exposure ([3]; coadministered strong CYP3A inducers): decreases belumosudil exposure
effect of itraconazole on belumosudil exposure ([3]; healthy subjects, coadministered itraconazole): no clinically meaningful effect on belumosudil exposure
decrease in belumosudil AUC [3, 11]: 47%
decrease in belumosudil Cmax [3, 11]: 68%
decrease in belumosudil AUC [3, 12]: 80%
decrease in belumosudil Cmax [3, 12]: 87%
decrease in belumosudil AUC [3, 13]: 72%
decrease in belumosudil Cmax [3, 13]: 59%
doses with fetal malformations ([4]; oral, pilot study, absence of anus and tail, omphalocele, dome shaped head): ≥ 50 mg/kg/day
maternal exposure (AUC) causing embryo-fetal mortality and malformations vs patients ([4]; organogenesis): less than those in patients at the recommended dose
adverse findings in female rats (pre-/post-implantation loss, viable embryos) [5]: increased pre- or post-implantation loss and decreased number of viable embryos
fertility of treated males or females [5]: Fertility was reduced in both treated males or females
sperm findings ([5]; male rats): abnormal sperm findings (reduced motility, reduced count, and increased percentage of abnormal sperm)
testes/epididymis organ changes ([5]; male rats): reduced weight and degeneration
dose with decreased follicular development in ovaries ([6]; rats): 275 mg/kg/day
reversal of reproductive organ changes ([6]; recovery period, rats and dogs): partially or fully reversed
differences in belumosudil pharmacokinetics by age, sex, weight, renal impairment [7]: No clinically significant differences
metabolism by CYP2D6 (CYP2D6 [8]): to a lesser extent
CYP1A2 inhibition (CYP1A2): inhibitor
CYP2C19 inhibition (CYP2C19): inhibitor
CYP2D6 inhibition (CYP2D6 [9]): inhibitor
genotoxicity, micronucleus (rat bone marrow): not genotoxic
